According to patent US20160193240A1, “Ulmoside-A: Useful For Prevention Or Cure Of Metabolic Diseases” (COUNCIL OF SCIENTIFIC & INDUSTRIAL RESEARCH, priority 2013, published 2016):

Molecular target: T1, AdipoR1 (Mus musculus, UniProt Q91VH1)
T1 construct: C2C12 myotubes (that express both AdipoR1 and AdipoR2) were incubated with 20 μl control or ULMA-beads; endogenous in cells; host or cells: C2C12 myotubes (mouse), plasma membrane extract
T1 sequence (Q91VH1 1-375): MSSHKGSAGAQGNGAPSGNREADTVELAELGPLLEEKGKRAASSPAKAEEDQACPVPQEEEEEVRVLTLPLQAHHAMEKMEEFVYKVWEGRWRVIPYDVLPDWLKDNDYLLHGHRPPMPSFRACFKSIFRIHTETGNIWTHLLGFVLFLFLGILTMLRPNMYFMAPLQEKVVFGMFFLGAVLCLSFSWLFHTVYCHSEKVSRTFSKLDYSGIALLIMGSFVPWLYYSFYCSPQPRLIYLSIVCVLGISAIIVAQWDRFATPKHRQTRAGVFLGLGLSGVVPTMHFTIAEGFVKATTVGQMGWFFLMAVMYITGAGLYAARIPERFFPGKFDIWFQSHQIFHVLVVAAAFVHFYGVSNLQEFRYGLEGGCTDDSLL
Experiment: ULMA-AdipoR interaction assay (ULMA beads, C2C12 myotube membrane extracts, western blot)
Assay type: binding
Conditions: 50 μg membrane extract, 12 hours
Experimental: B. ULMA interacts with AdipoRs. 20 μl of ULMA beads or control beads were incubated with 50 μg of plasma membrane extracts (prepared using a membrane protein isolation kit; Biomol; according to manufacturer's instructions) prepared from C2C12 myotubes (that expresses both AdipoR1 and AdipoR2) for 12 h on a rotary wheel set at 10 rpm. The supernatant was removed and an aliquot was stored as flowthrough. The pellet was washed 6 times and then the beads were boiled in Lamelli buffer and resolved by 10% denaturing polyacrylamide gel electrophoresis followed by transfer on nitrocellulose membrane and western blotting with anti AdipoR1 or anti-AdipoR2 antibodies. Data represents one of two independent experiments showing identical pattern.
To investigate whether this enhancement of PPAR ligand activity by ULMA indeed happens through AdipoRs, physical interaction between ULMA and AdipoRs were assessed. The ULMA was immobilized on agarose beads.
Preparation of ULMA Specific Affinity Matrix:
ULMA specific Affinity Matrix and Control Matrix were prepared using following protocol.
1. 45 mg and 22.5 mg of epoxy-activated agarose beads (sigma) were weighed and put separately in two 1.5 ml eppendorf tubes. Tubes were labeled as tube-1 and tube-2. 2. The beads were washed 6×, 1 ml each, with double distilled water (DDW). […] At this stage beads were ready for incubation with protein source. […]

For `O=C1c2c(cc(O)c([C@@H]3O[C@H](CO)[C@@H](O)[C@H](O)[C@H]3O)c2O)O[C@@H](c2ccc(O)c(O)c2)[C@@H]1O` [ULMA, (2S,3S)-(+)-3′,4′,5,7-tetrahydroxydihydroflavonol-6-C-β-D-glucopyranoside], the “AdipoR1 detection on ULMA beads vs control beads” value was “detected on ULMA beads”.
